# According to ChEMBL document CHEMBL1201862, “PubChem BioAssay data set” (2004):
#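 How tested: cells in 96-well plates exposed to compound for 48 hours at five concentrations. GI50 marks 50% less growth.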 Active and inactive are the calls of the source. Cut-off read from the data, not from the text of the source: active = GI50 up to about 1.1 µM and inactive = higher.
# Key:
# Assay in all cases: DTP human tumour cell line panel, 48 h
# [1] = test system: Hs-578T
# [2] = test system: SK-MEL-5
# [3] = test system: NCI-H460
# [4] = test system: SF-295
# [5] = test system: CAKI-1
# [6] = test system: SN12C
# [7] = test system: HCT-15
# [8] = test system: HL-60
# [9] = test system: NCI-H23
# [10] = test system: EKVX
# [11] = test system: T47D
# [12] = test system: UACC-257
# [13] = test system: SNB-75
# [14] = test system: A549
# [15] = test system: MDA-MB-435
# [16] = test system: NCI/ADR-RES
# [17] = test system: K562
# [18] = test system: OVCAR-8
# [19] = test system: BT-549
# [20] = test system: RPMI-8226
SMILES,GI50 [1],GI50 [2],GI50 [3],GI50 [4],GI50 [5],GI50 [6],GI50 [7] [µM],GI50 [8],GI50 [9],GI50 [10],GI50 [11],GI50 [12],GI50 [13],GI50 [14],GI50 [15],GI50 [16],GI50 [17],GI50 [18],GI50 [19],GI50 [20]
COc1cc2c(cc1OC)C1c3ccccc3CCN1CC2 (stereo unspecified),58.2 µM (inactive),81.1 µM (inactive),94.4 µM (inactive),82.6 µM (inactive),> 100 µM (inactive),62.5 µM (inactive),> 100,30.4 µM (inactive),63.5 µM (inactive),> 100 µM (inactive),75.9 µM (inactive),> 100 µM (inactive),44.6 µM (inactive),> 100 µM (inactive),37.2 µM (inactive),95.7 µM (inactive),57.7 µM (inactive),> 100 µM (inactive),,
CSc1nc2c(c(=O)[nH]1)N=C(c1ccc([N+](=O)[O-])cc1)CC(c1ccccc1)N2 (stereo unspecified),,20.9 µM (inactive),,51.1 µM (inactive),89.1 µM (inactive),54.8 µM (inactive),,14.7 µM (inactive),41.3 µM (inactive),36.4 µM (inactive),,44.9 µM (inactive),22.7 µM (inactive),32.4 µM (inactive),28.2 µM (inactive),30 µM (inactive),34.4 µM (inactive),34.5 µM (inactive),37.7 µM (inactive),22 µM (inactive)
COC(=O)C(=O)C(C(=O)C(=O)Nc1ccc(C)cc1C)c1nc2ccc(Cl)cc2nc1O (stereo unspecified),> 100 µM (inactive),> 100 µM (inactive),> 100 µM (inactive),> 100 µM (inactive),> 100 µM (inactive),> 100 µM (inactive),> 100,78 µM (inactive),> 100 µM (inactive),34.6 µM (inactive),,> 100 µM (inactive),> 100 µM (inactive),> 100 µM (inactive),> 100 µM (inactive),> 100 µM (inactive),,> 100 µM (inactive),> 100 µM (inactive),
O=c1c2cc(-c3ccccc3)cnc2sn1-c1ccc([N+](=O)[O-])cc1,,,37.3 µM (inactive),27 µM (inactive),39.6 µM (inactive),60 µM (inactive),55.2,37.8 µM (inactive),15.1 µM (inactive),53 µM (inactive),44.1 µM (inactive),> 100 µM (inactive),25.1 µM (inactive),31.8 µM (inactive),42.3 µM (inactive),32.7 µM (inactive),35.8 µM (inactive),33.2 µM (inactive),52.8 µM (inactive),23.4 µM (inactive)
NN/C(=N\S(=O)(=O)c1cc(S(=O)(=O)c2ccccc2)cs1)Nc1ccc(Cl)cc1,,16.9 µM (inactive),22.5 µM (inactive),17.6 µM (inactive),34.1 µM (inactive),28.4 µM (inactive),34.3,4.58 µM (inactive),23.8 µM (inactive),13.6 µM (inactive),13.8 µM (inactive),19 µM (inactive),21.9 µM (inactive),27.2 µM (inactive),,29.6 µM (inactive),18.7 µM (inactive),32.4 µM (inactive),31.2 µM (inactive),22.7 µM (inactive)
Cc1cccc(/C(Br)=C2/OC(=O)c3ccccc32)c1,> 100 µM (inactive),> 100 µM (inactive),> 100 µM (inactive),> 100 µM (inactive),> 100 µM (inactive),> 100 µM (inactive),> 100,> 10 µM (inactive),> 100 µM (inactive),> 100 µM (inactive),,> 100 µM (inactive),> 100 µM (inactive),> 100 µM (inactive),> 100 µM (inactive),,,> 100 µM (inactive),> 100 µM (inactive),> 100 µM (inactive)
COc1ccc(N(C(=O)NCCO)c2ccccc2)cc1,> 100 µM (inactive),> 100 µM (inactive),> 100 µM (inactive),> 100 µM (inactive),> 100 µM (inactive),> 100 µM (inactive),> 100,> 100 µM (inactive),> 100 µM (inactive),> 100 µM (inactive),> 100 µM (inactive),> 100 µM (inactive),> 100 µM (inactive),> 100 µM (inactive),> 100 µM (inactive),> 100 µM (inactive),> 100 µM (inactive),> 100 µM (inactive),,> 100 µM (inactive)
O=C(COc1ccc(OCC(=O)N2C(=O)CC(=O)N(c3ccc(Cl)cc3)C2=S)cc1)N1C(=O)CC(=O)N(c2ccc(Cl)cc2)C1=S,,29.7 µM (inactive),29.2 µM (inactive),34 µM (inactive),,42 µM (inactive),24.3,,25.8 µM (inactive),42.2 µM (inactive),,36.1 µM (inactive),72.9 µM (inactive),22.6 µM (inactive),32 µM (inactive),22.9 µM (inactive),19.4 µM (inactive),,23.3 µM (inactive),49.5 µM (inactive)
COc1ccc(C=O)cc1Oc1ccc(C[C@H]2c3c(cc(OC)c4c3Oc3cc5c(cc3O4)CCN(C)C5=O)CCN2C)cc1,8.04 µM (inactive),7.33 µM (inactive),9.04 µM (inactive),7.41 µM (inactive),18.7 µM (inactive),12.9 µM (inactive),10.1,8.85 µM (inactive),7.14 µM (inactive),9.4 µM (inactive),33.7 µM (inactive),8.04 µM (inactive),7.29 µM (inactive),36.2 µM (inactive),9.73 µM (inactive),8.07 µM (inactive),6.05 µM (inactive),7.87 µM (inactive),,5.04 µM (inactive)
O=C(CCCCCCCCC(=O)NN1C(=O)/C(=C\c2ccc(O)c(O)c2)SC1c1c(O)ccc2ccccc12)NN1C(=O)C(=Cc2ccc(O)c(O)c2)SC1c1c(O)ccc2ccccc12 (stereo unspecified),,1.93 µM (inactive),4.62 µM (inactive),3.86 µM (inactive),6.01 µM (inactive),27.2 µM (inactive),4.66,,9.35 µM (inactive),7.59 µM (inactive),11.3 µM (inactive),10.7 µM (inactive),60.4 µM (inactive),6.95 µM (inactive),> 27.2 µM (inactive),10.6 µM (inactive),5.64 µM (inactive),4.49 µM (inactive),> 36.9 µM (inactive),3.85 µM (inactive)
C=C1C2C[C@@H]3O[C@H]4C[C@H]5O[C@@]6(C[C@@H]7O[C@]8(C[C@H](C)[C@@H]9O[C@@H]%10CC(C=O)O[C@@H]%10C[C@@H]9O8)C[C@H](C)[C@@H]7O6)C[C@H]5O[C@H]4[C@H](C)[C@H]3OC(=O)C[C@H]3CC[C@@H]4OC5[C@H]6O[C@]7(CC[C@H]8CC(=C)[C@H](CC[C@@H](C[C@H]1C)O2)O8)CC6O[C@@H]5[C@@H](O7)[C@H]4O3 (stereo partly specified),< 0.0001 µM (active),< 0.0001 µM (active),< 0.0001 µM (active),< 0.0001 µM (active),< 0.0001 µM (active),0.000179 µM (active),< 0.0001,,< 0.0001 µM (active),< 0.0001 µM (active),,< 0.01 µM (active),< 0.0001 µM (active),< 0.0001 µM (active),< 0.0001 µM (active),0.000951 µM (active),< 0.0001 µM (active),< 0.0001 µM (active),< 0.0001 µM (active),< 0.0001 µM (active)
Cc1ccc(Cl)c(NC(=O)C(=O)C(C(=O)c2ccncc2)C2OC(=O)c3ccccc32)c1 (stereo unspecified),,> 100 µM (inactive),> 100 µM (inactive),> 100 µM (inactive),> 100 µM (inactive),> 100 µM (inactive),> 100,> 100 µM (inactive),> 100 µM (inactive),> 100 µM (inactive),,> 100 µM (inactive),> 100 µM (inactive),> 100 µM (inactive),,,> 100 µM (inactive),> 100 µM (inactive),,> 100 µM (inactive)
c1ccc(Cc2nc(Cc3n[nH]c(Cc4ccccc4)n3)n[nH]2)cc1,11.8 µM (inactive),> 100 µM (inactive),,> 100 µM (inactive),,> 100 µM (inactive),> 100,,> 100 µM (inactive),> 100 µM (inactive),,> 100 µM (inactive),> 100 µM (inactive),> 100 µM (inactive),> 100 µM (inactive),> 100 µM (inactive),> 100 µM (inactive),> 100 µM (inactive),> 100 µM (inactive),> 100 µM (inactive)
O=C1CCNC/C1=C\c1ccccc1,,20.3 µM (inactive),30.9 µM (inactive),26.9 µM (inactive),44.8 µM (inactive),34.5 µM (inactive),17.1,16.3 µM (inactive),18.2 µM (inactive),> 100 µM (inactive),,25.8 µM (inactive),37.8 µM (inactive),22.2 µM (inactive),,,23.1 µM (inactive),22.2 µM (inactive),,24 µM (inactive)
Cc1cc(C(=O)N2CCN(Cc3ccccc3)CC2)c(C)o1,,> 100 µM (inactive),> 100 µM (inactive),> 100 µM (inactive),> 100 µM (inactive),> 100 µM (inactive),> 100,25.4 µM (inactive),> 100 µM (inactive),> 100 µM (inactive),,> 100 µM (inactive),> 100 µM (inactive),> 100 µM (inactive),,,> 100 µM (inactive),> 100 µM (inactive),,> 100 µM (inactive)
COC(=O)Cc1c(C(=O)CC(C)(C)n2cnc(CCN3C(=O)CCC3=O)c2)[nH]c2ccccc12,> 100 µM (inactive),> 100 µM (inactive),> 100 µM (inactive),> 100 µM (inactive),> 100 µM (inactive),> 100 µM (inactive),> 100,,> 100 µM (inactive),> 100 µM (inactive),,> 100 µM (inactive),27 µM (inactive),> 100 µM (inactive),> 100 µM (inactive),> 100 µM (inactive),> 100 µM (inactive),> 100 µM (inactive),> 100 µM (inactive),
